Source: ChEMBL document CHEMBL2434945, “Anti-inflammatory constituents from the fruits of Vitex rotundifolia” (Bioorg Med Chem Lett, 2013)

Legend:
[1] = Cytotoxicity against mouse RAW264.7 cells assessed as cell viability by colorimetric method relative to control; type: cell-based; parameters: concentration or dose not given beside the values; conditions: read-out: Activity
[2] = tested on: RAW264.7; assay: Antiinflammatory activity against mouse RAW264.7 cells assessed as inhibition of LPS-induced NO production after 24 hrs by Griess method; type: functional, cell-based; conditions: RAW264.7, 24 h

Row | IC50 [2] | Structure (SMILES) | viability [1]
1 | 11.3 µM | CC(=O)O[C@@H]1C[C@@H](C)[C@](O)(CCC2=CC(=O)OC2O)[C@@]2(C)CCCC(C)(C)[C@H]12 (some centres undefined) [VITEAGNUSIN I] | > 90%
2 | 21.4 µM | COc1ccc(-c2oc3cc(OC)c(OC)c(O)c3c(=O)c2OC)cc1O [CASTICIN] | > 90%
3 | > 50 µM | COc1cc(C[C@H]2CO[C@H](c3ccc(O)c(OC)c3)[C@H]2CO)ccc1O [LARICIRESINOL] | > 90%
4 | 38.7 µM | COc1cc([C@H]2Oc3c(OC)cc(CCCO)cc3[C@@H]2CO)ccc1O [DIHYDRODEHYDRODICONIFERY ALCOHOL] | > 90%
5 | 41.8 µM | C[C@@H]1CC[C@H]2C(C)(C)CCC[C@]2(C)[C@@]12CC/C(=C\C=O)O2 | > 90%
6 | > 50 µM | CC(=O)O[C@H]1CC[C@@]2(C)[C@@H](CC[C@@H](C)[C@]23CCC(=O)O3)C1(C)C [VITEDOIN B] | > 90%
7 | > 50 µM | CC(C)(O)c1ccc2c(c1)CC[C@H]1C(C)(C)[C@@H](O)CC[C@]21C | > 90%
8 |  | N=C(N)NN [PIMAGEDINE] | > 90%
9 | 42.5 µM | CC(=O)O[C@@H]1C[C@@H](C)[C@](O)(CCC2=CC(=O)OC2)[C@@]2(C)CCCC(C)(C)[C@H]12 [VITEXILACTONE] | > 90%
10 | 24.5 µM | C=CC(C)(O)CC[C@@]1(C)C2=C([C@H](OC(C)=O)[C@H](OC(C)=O)[C@H]1C)C(C)(C)CCC2 (some centres undefined) [VITETRIFOLIN D] | > 90%
